Where a name gives a salt, the structure may show the parent alone.
Key:
[1] = test system: streptozotocin-induced diabetic mice; experiment: Charcoal powder transportability test of gastrointestinal tract using diabetic mice; format: in vivo, male ICR mice; details: diabetes group
Protocol: Test: Charcoal Powder Transportability Test of Gastrointestinal Tract Using Diabetic Mice (in vivo)
Streptozotocin (200 mg/kg) dissolved in citrate buffer (pH 4.5) was intraperitoneally administered to male ICR mice (7–11 per group, body weight: about 20 g) to induce diabetes.
CDP-choline Na was dissolved in distilled water and orally administered at a dose of 100 mg/kg. once a day from immediately after induction of diabetes.
The mice that had undergone streptozotocin administration 8 weeks before were used for the test. A 5% activated charcoal powder suspension was prepared using 0.5% aqueous carboxymethylcellulose solution, and orally administered at 0.1 ml/mice to mice fasted from the previous day. After 30 min, the gastrointestinal tract from pyloric portion of stomach to rectum was enucleated and the whole length was measured. In addition, the position of the activated charcoal powder after movement was confirmed and the distance of movement from pyloric portion of stomach was measured. This was converted to numerical values based on the whole length of from pyloric portion of stomach to rectum as 100%, and the data was processed and taken to show charcoal powder transportability of gastrointestinal tract.
How the charcoal powder transportability of gastrointestinal tract changed in the diabetes group as compared to the normal group and the results with administration of 100 mg/kg of CDP-choline to the diabetes group are shown in Table 1. In Table 1, the normal group, diabetes group and diabetes+CDP-choline administration group were divided into three criteria of less than 40%, not less than 40% and less than 60%, and not less than 60% of charcoal powder transportability of gastrointestinal tract, and the number of incidents in each criterion is shown in percentage.

[2] = test system: streptozotocin-induced diabetic mouse; experiment: Assessment (threshold analysis) of thermal nociceptive response, tail-flick test, using diabetic mouse; format: in vivo, male ICR mice
Protocol: Test: Assessment (Threshold Analysis) of Thermal Nociceptive Response Using Diabetic Mouse (in vivo)
This test was performed according to the method of Osawa and Kamei [Eur. J. Pharmacol., 372, 221–228 (1999)]. […]
The assessment was performed using a tail-flick test. To be specific, photothermic stimulation was given to the tail of mouse, and the reaction latency until it moves the tail feeling the heat was measured. How the reaction latency changed in the diabetes group as compared to the normal group and the results with administration of 100 mg/kg of CDP-choline to the diabetes group are shown in FIG. 1.
(See the Method of Osawa and Kamei [Eur. J. Pharmacol., 372, 221–228 (1999)])
Streptozotocin (200 mg/kg) dissolved in citrate buffer (pH 4.5) was administered into the tail vein of male ICR mice (12–13 per group, body weight: about 20 g) to induce diabetes. […]
The assessment was performed using a tail-flick test.
Test: Assessment (Threshold Analysis) of Thermal Nociceptive Response Using diabetic Mice (in vivo)
CDP-choline Na was dissolved in distilled water and orally administered at a dose of 100 mg/kg once a day starting from the time point when 8 weeks passed from the administration of streptozotocin. […]

[3] = test system: diabetic neuropathy patients; details: Phase III controlled clinical trial; cited from earlier work
[4] = test system: peripheral neuropathy induced by taxol; details: reported in WO 00/11952; cited from earlier work
[5] = 100 mg/kg oral once a day from induction, 8 weeks after streptozotocin

C[N+](C)(C)CCOP(=O)(O)OP(=O)([O-])OC[C@H]1O[C@@H](n2ccc(N)nc2=O)[C@H](O)[C@@H]1O [CDP-choline, cytidine 5′-diphosphocholine monosodium salt]
inhibition of degradation of charcoal powder transportability of gastrointestinal tract ([1]; 100 mg/kg oral): complete inhibition | incidence of mice with charcoal powder transportability of gastrointestinal tract less than 40% [1, 5]: 0% | incidence of mice with charcoal powder transportability of gastrointestinal tract not less than 40% and less than 60% [1, 5]: 71.4% | incidence of mice with charcoal powder transportability of gastrointestinal tract not less than 60% [1, 5]: 28.6% | reaction latency prolongation-inhibitory effect ([2]; 100 mg/kg oral from 8 weeks post-streptozotocin, at the lapse of 11 weeks after streptozotocin): significant reaction latency prolongation-inhibitory effect was observed | inhibitory effect on prolongation of reaction latency (diminished sensation of the sensory nerves) ([2]; Example 5, oral once a day from 5 weeks post-streptozotocin, 100 mg/kg, FIG. 3 at 7 weeks, similar at 6 or 8 weeks): nearly completely inhibited | effect on prolongation of reaction latency ([2]; diabetes group, 30 mg/kg oral, from 5 weeks post-streptozotocin, data not shown): a similar effect was observed | inhibition of prolongation of reaction latency (diminished sensation) ([2]; diabetes group, 100 mg/kg oral once a day from 5 weeks post-streptozotocin, FIG. 2): almost completely inhibited | inhibition of biphasic neuropathy (reaction latency, tail-flick) ([2]; diabetes group, 100 mg/kg oral once a day from immediately after induction of diabetes, FIG. 1): almost completely inhibited | effect on reaction latency (tail-flick) ([2]; diabetes group, 300 mg/kg oral, from immediately after induction of diabetes): a similar effect was found | effect on reaction latency (tail-flick) in normal group ([2]; normal group, 100 or 300 mg/kg): no effect on the reaction latency

Cc1cccc(C)c1OCC(C)N (stereo not shown) [mexiletine hydrochloride]
spontaneous pain relieving rate [3]: not more than 50%

CC(=O)OC[C@H]1O[C@@H](n2ccc(=O)[nH]c2=O)[C@H](OC(C)=O)[C@@H]1OC(C)=O [triacetyluridine]
efficacy for peripheral neuropathy (diminished sensation) induced by taxol [4]: effective

Source: patent US7074773B2, “Pharmaceutical composition for diabetic neuropathy” (priority 2001, dated 2006)
